Consider 1 compound from patent US6410545B1, “Lipid lowering quinazoline dietary supplement composition” (Parker Hughes Institute, priority 1998, dated 2002).

The test system of assay [1] is hypercholesterolemic C57B⅙ mice. The experiment in a line: Serum lipoprotein profile (VLDL-C, HDL-C) by FPLC in C57B⅙ mice on cocoa butter diet. Format: in vivo. The following applies: for HDL-C / VLDL-C: C57B1/6, cocoa butter diet. The method, then: Three- to four-week old C57B⅙ male mice (Taconic, Germantown, N.Y., USA) were kept in micro-isolator cages on a 12-hour day/night cycle and fed the Paigen's cocoa butter diet (15.8% fat, 1.25% cholesterol, and 0.5% sodium cholate) (Harlan Teklad, Madison, Wis., USA) for two weeks prior to initiation of lipid lowering therapy. Paigen's diet is described in Nishina et.al., 1993, J. Lipid Res. 34: 1413-1422.
Animals were treated with test compounds by intraperitoneal injection daily for 7 days. A range of doses was administered. Control animals received vehicle alone. The effect of quinazoline derivatives on total cholesterol, LDL, HDL, liver enzymes, and glucose was analyzed. The mice tissues were also examined histologically.
Serum cholesterol profiles were examined by Fast Protein Liquid Chromatography (FPLC) using 100 μl of serum per run. The serum was passed over two Superose™ 6 HR 10/30 connected in tandem equilibrated in phosphate buffered saline (PBS), using the FPLC system from Pharmacia Biotech (Piscataway, N.J., USA) consisting of a controller LCC-501 plus connected to a UV detector (UV-MII), two P500 pumps, and a Frac-100 fraction collector. The FPLC was remotely controlled and operated by the FPLC director program operated on an IBM computer. The system was operated at a flow rate of 0.5 ml/minute and fractions were collected at 0.5 ml/fraction. Cholesterol concentration of each fraction was determined as described above and plotted against the fraction numbers to obtain the serum cholesterol profile.
To determine the serum concentrations of LDL/β-VLDL and HDL, the sums of the LDL/β-VLDL peak (fractions 29-35) and the HDL peak (fractions 53-63) were divided by 0.1. To obtain the IC50 and the minimum β-VLDL and HDL concentrations, the concentrations of β-VLDL and HDL were plotted against the dosage. Best fitted exponential decay curves were obtained using the equation: Concentration of HDL or LDL/β-VLDL=Aexp(−BX)+E, where A+E equals the concentration of HDL or LDL/β-VLDL at the dosage of 0 μg/day and E equals the mathematical minimum concentration of HDL or β-VLDL, and B equals 0.69/IC50. Best fitted curves were obtained using the Graphpad Inplot program, Graphpad Software, San Diego, Calif., USA.
As shown by their serum lipoprotein profiles (FIG. 1), hypercholesterolemic C57B⅙ mice preferentially accumulated cholesterol rich VLDL (171±19 mg/dL, n=4 versus 7±4 mg/dL, n=3, p=0.0008) but no changes in HDL cholesterol levels (90±9 mg/dL, n=4 versus 86±13 mg/dL, n=3, p=0.8) (Table 2). […] In WHI-P164 treated mice, serum VLDL-C decreased immediately from 171±19 mg/dL (n=4), to 99±13 mg/dL (n=4) at the 1.6 mg/kg/day dose level (P=0.02) and further decreased to 78±15 mg/dL (n=4) at the 16 mg/kg/day dose level (p=0.1) (Table 1). […] Thus, WHI-P164 was only able to reduce VLDL-C by […].

Another assay relates to apo e−/− mice. The assay is described as follows: In vivo hepatic VLDL-TG production using Triton WR1339 in apo e−/− mice. The method, then: (§1) C57B⅙ and apoE-deficient mice were treated with intraperitoneal injections of 50 μl vehicle or 40 mg/kg WHI-P164 in 50 μl vehicle for 7 consecutive days, followed by a 36 hour fast to shut down intestinal chylomicron synthesis. […] Blood samples were taken at 0 and 4 hours after Triton WR1339 injection and plasma TG levels were measured enzymatically using a commercially available enzymatic kit (Sigma Chemical Co.). Alternatively, food was returned to the mice after a 36 hour fast and blood samples were collected at 0, 1, 3, 6, and 9 hours after returning the food. Accumulation of chylomicron-TG was determined as accumulation of plasma TG.
To determine if WHI-P164 prevent hepatic TG accumulation by relieving 9 block in VLDL-TG secretion or by inhibiting upstream TG synthesis, in vivo hepatic VLDL-TG synthesis was analyzed. Synthesis was determined by following the accumulation of VLDL-TG after shutting down VLDL catabolism with Triton WR1339 injection and intestinal chylomicron synthesis with a 36 hours fast.
C57B⅙ and apoE-deficient mice were treated with intra peritoneal injections of vehicle or 40 mg/kg WHI-P164 (in 50 μl vehicle) for 7 consecutive days, followed by a 36 hour fast to shut down intestinal chylomicron synthesis. […] Blood samples (50 μl) were taken at 0 and 4 hours after Triton WR1339 injection and plasma TG was measured enzymatically using a commercially available enzymatic kit (Sigma Chemical Co.), as previously reported (Kuipers, supra).

For another assay, the system named is C57B⅙ mice. The assay is described as follows: Postprandial triglyceride accumulation after 36 hour fast. It is filed as in vivo. The following applies: 40 mg/kg/day for 7 days. The method, then:
FIG. 5 is a graph showing inhibition of postprandial triglyceride accumulation by WHI-P164 treatment. C57B⅙ mice were treated with WHI-P164 at 40 mg/kg/day for 7 days, and fasted 36 hours with continuing treatment. […].
as §1
Inhibition reached statistical significance at 6 hours in vehicle treated mice having a plasma TG level of 272±25 mg/dL, n=5, as compared to a plasma TG level of 155±32 mg/dL, n=5, p=0.004 in WHI-P164 treated mice.

“Also recorded” adds a separate entry of the source.

Regarding `COc1cc2ncnc(C(=O)c3cccc(Br)c3)c2cc1OC` [WHI-P164, 4-(3′-bromobenzoyl)-6,7-dimethoxyquinazoline], the HDL-C in assay [1] (dose 1.6 mg/kg) is reported as 93 ± 8 mg/dL; in assay [1] (dose 4.0 mg/kg), 86 ± 5 mg/dL; in assay [1] (dose 8.0 mg/kg) it was 81 ± 9 mg/dL; in assay [1] (dose 16.0 mg/kg), 74 ± 10 mg/dL. Further, the VLDL-C was determined as 99 ± 13 mg/dL in assay [1] (dose 1.6 mg/kg/day), 106 ± 15 mg/dL in assay [1] (dose 4.0 mg/kg), 101 ± 7 mg/dL in assay [1] (dose 8.0 mg/kg) and 78 ± 15 mg/dL in assay [1] (dose 16 mg/kg/day). Moreover, the “Effect on serum HDL-C levels” value in assay [1] (C57B⅙ mice, cocoa butter diet) is “did not significantly affect”. The “Calculated effective dose (ED50) for VLDL-C lowering” value in assay [1] (C57B⅙ mice, cocoa butter diet, fitted exponential decay curve) is on record as 0.4 mg/kg/day. Moreover, the “Minimum serum VLDL-C level” value in assay [1] (C57B⅙ mice, cocoa butter diet, mathematical minimum of fitted curve) amounted to 94 ± 9 mg/dL. Besides, the “Reduction of VLDL-C” value in assay [1] (C57B⅙ mice, cocoa butter diet, maximal reduction) came out at 45%. Moreover, the “Reduction of LDL-C” value in assay [1] (hypercholesterolemic C57B⅙ mice on a high calorie diet) came to 45%. Also, the “Triglyceride, Pre-Triton WR 1339” value with apo e−/− mice (apo e−/− (C57B1/6), 40 mg/kg i.p. 7 days, 36 hour fast) is reported as 155 ± 14 (n = 10) mg/dL. Besides, in the assay on apo e−/− mice (apo e−/− (C57B1/6), 40 mg/kg i.p. 7 days, 36 hour fast, 4 hours after Triton WR1339), the “Triglyceride, Post-Triton WR 1339” value was 465 ± 46 (n = 8) mg/dL. Moreover, the “Accumulation of VLDL-TG after Triton WR1339 treatment” value in the assay on apo e−/− mice (apo e−/− mice, 40 mg/kg, versus vehicle) is reported as “significantly less accumulation of VLDL-TG than vehicle-treated control mice”. For the same compound, in the assay on C57B⅙ mice (6 hours after returning food to 36 hours fasted mice), the “Plasma TG level” value was found to be 155 ± 32 mg/dL. The Postprandial triglyceride accumulation result in the assay on C57B⅙ mice (C57B⅙ mice, fasted 36 hours, versus vehicle, 40 mg/kg/day) is on record as “much reduced postprandial triglyceride accumulation; also recorded: Postprandial accumulation was inhibited”.
